Source: patent US20230263886A1, “VACCINES, VACCINE PRIMING, AND ANTIGEN DOSE SPARING” (priority 2020, published 2023)

What was measured:
[1] = assay type: in vivo, C57BL/6J mice
Description: Body weights were measured serially.

H3N2 [2] = experiment: H3N2-specific IgG by ELISA, dose-sparing study in mice (Example 4); conditions: FIG. 26
Description: Sera were analyzed at days 0, 21 and 42 by ELISA for H3N2-specific IgG.

H3N2 [3] = conditions: including a recombinant influenza antigen
Description: Sera were analyzed at days 0, 14, and 28 by ELISA for H3N2-specific IgG titers and HI (hemagglutination inhibition) titers, H1N1-specific IgG titers and HI titers, and B/Phuket-specific IgG titers and HI titers. All mice were previously naïve to human influenza.

| Molecule | body weight after immunization ([1]; mice receiving TQL-1055) | antigen dose-sparing effects, murine antibody response to FLUBLOK (H3N2 [2]) | dose sparing for vaccine antigens (H3N2 [3]) | maximum weight loss ([1]; mice receiving 20 mcg of QS-21) |
| --- | --- | --- | --- | --- |
| CC1O[C@@H](OC2C(O)[C@@H](NC(=O)CCCCCCCCCCC(=O)O)C(CO)O[C@H]2OC(=O)[C@]23CCC(C)(C)CC2C2=CCC4C5(C)CC[C@H](O)C(C)(C=O)C5CCC4(C)C2(C)CC3O)C(O)C(O)[C@H]1O[C@@H]1OC[C@@H](O)C(O)C1O (stereo partly shown) [TQL-1055] | gained weight steadily | superior antigen dose-sparing effects | at least 32 × | – |
| QS-21 [reference compound] | – | – | – | > 10% |
